The source made the active and inactive calls.
Columns and labels:
L929 = test: Anti-necroptotic activity in TZ-induced mouse L929 cells assessed as increase in cell viability preincubated with Z-VAD-FMK followed by mTNFalpha stimulation for 4 hrs and measured after compound addition by CellTiter-Lumi luminescent cell viability assay; type: functional, cell-based
RAW264.7 = test: Anti-necroptotic activity in LZ-induced mouse RAW264.7 cells assessed as increase in cell viability preincubated with compound followed by LPS and Z-VAD-FMK stimulation and measured after 16 hrs by CellTiter-Lumi luminescent cell viability assay; type: functional, cell-based
HT-29 [1] = test: Anti-apoptotic activity in TS-induced human HT-29 cells assessed as increase in cell viability at 1.25 to 20 uM preincubated with compound followed by TNF-alpha and SM164 addition and measured after 36 hrs by CellTiter-Lumi luminescent cell viability assay; type: functional, cell-based; conditions: dose 1.25-20 µM
HT-29 [2] = test: Anti-necroptotic activity in TSZ-induced human HT-29 cells assessed as cell survival at 10 uM measured after 12 hrs by Live-cell super-resolution panoramic microscopic analysis (reference value: 8 hrs); type: functional
Mus musculus [3] = test: (§1) Anti-necroptotic activity in TNFalpha/Z-VAD-FMK induced SIRS male C57BL/6J mouse model assessed as protection from hypothermia at 2.5 to 10 mg/kg, po pre-administered with compound via gavage for 2 hrs followed by […] of Z-VAD-FMK stimulation for 15 mins with subsequent TNF-alpha stimulation for 1 hrs and re-current […] of Z-VAD-FMK stimulation and measured after 8 hrs post SIRS induction; type: functional, organism-based; conditions: dose 2.5-10 mg/kg, time 10.0 hrs
Mus musculus [4] = test: as §1, with “reduction in IL6 in kidney” for “protection from hypothermia”, “5” for “2.5”, “induction by ELISA” for “induction”; type: functional, organism-based; conditions: dose 5-10 mg/kg, time 10.0 hrs
Mus musculus [5] = test: as §1, with “reduction in IL6 in brain” for “protection from hypothermia”, “5” for “2.5”, “induction by ELISA” for “induction”; type: functional, organism-based; conditions: dose 5-10 mg/kg, time 10.0 hrs
[6] = Cmax in Sprague-Dawley rat at 2 mg/kg, iv measured after 24 hrs by LC-MS/MS analysis; type: ADME, organism-based; conditions: in vivo
[7] = AUC (0 to 24 hrs) in Sprague-Dawley rat at 10 mg/kg, IG measured after 24 hrs by LC-MS/MS analysis; type: ADME, organism-based; conditions: in vivo, po
[8] = Acute toxicity in male C57BL/6J mouse assessed as effect on ALT level at 2 g/Kg, IG measured after 72 hrs; conditions: in vivo, po, 2000 mg/kg
[9] = Acute toxicity in male C57BL/6J mouse assessed as structural changes in lung at 2 g/Kg, IG measured after 72 hrs by H and E staining based analysis; type: tissue-based; conditions: in vivo, po, 2000 mg/kg
[10] = Acute toxicity in male C57BL/6J mouse assessed as structural changes in kidney at 2 g/Kg, IG measured after 72 hrs by H and E staining based analysis; type: tissue-based; conditions: in vivo, po, 2000 mg/kg
[11] = Acute toxicity in male C57BL/6J mouse assessed as hemorrhage in brain at 2 g/Kg, IG measured after 72 hrs by H and E staining based analysis; type: tissue-based; conditions: in vivo, po, 2000 mg/kg
[12] = Acute toxicity in male C57BL/6J mouse assessed as inflammatory cell infiltration in stomach at 2 g/Kg, IG measured after 72 hrs by H and E staining based analysis; type: tissue-based; conditions: in vivo, po, 2000 mg/kg
[13] = target: Heat shock protein HSP90 (Homo sapiens) (UniProt P07900+P08238); test: Inhibition of HSP90 in TSZ-induced human HT-29 cells assessed as reduction in EGFR protein level preincubated with compound followed by Z-VAD-FMK, SM164 and TNFalpha stimulation and measured after 6 hrs by Western blot analysis; type: cell-based; conditions: dose 0.625-10 µM
[14] = target: T1, Receptor-interacting serine/threonine-protein kinase 1 (Homo sapiens) (UniProt Q13546); test: Inhibition of RIPK1 phosphorylation at S166 residue in TSZ-induced human HT-29 cells at 10 uM preincubated with compound followed by Z-VAD-FMK, SM164 and TNFalpha stimulation and measured after 6 hrs by Western blot analysis; type: cell-based
T1 sequence (whole entry): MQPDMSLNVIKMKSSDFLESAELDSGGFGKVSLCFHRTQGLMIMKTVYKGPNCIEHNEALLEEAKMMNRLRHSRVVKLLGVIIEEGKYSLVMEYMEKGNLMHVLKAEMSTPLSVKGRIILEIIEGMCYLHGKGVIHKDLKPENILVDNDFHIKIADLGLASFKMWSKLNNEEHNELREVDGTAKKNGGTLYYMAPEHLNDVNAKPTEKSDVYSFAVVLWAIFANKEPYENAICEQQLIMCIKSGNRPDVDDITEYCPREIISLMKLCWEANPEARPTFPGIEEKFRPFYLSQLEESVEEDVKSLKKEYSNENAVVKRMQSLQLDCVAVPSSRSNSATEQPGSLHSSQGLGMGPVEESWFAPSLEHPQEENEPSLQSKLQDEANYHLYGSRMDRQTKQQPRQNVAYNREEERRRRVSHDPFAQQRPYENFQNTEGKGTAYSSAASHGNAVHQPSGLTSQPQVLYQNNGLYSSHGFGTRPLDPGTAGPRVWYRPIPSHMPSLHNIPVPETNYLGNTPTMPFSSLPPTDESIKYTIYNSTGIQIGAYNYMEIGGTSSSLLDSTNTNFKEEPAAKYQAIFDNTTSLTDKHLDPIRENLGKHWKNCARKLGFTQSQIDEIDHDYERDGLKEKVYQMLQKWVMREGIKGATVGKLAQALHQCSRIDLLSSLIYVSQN

[15] = Inhibition of TSZ-mediated necrosome formation in human HT-29 cells at 10 uM preincubated with compound followed by Z-VAD-FMK, SM164 and TNFalpha stimulation and measured after 6 hrs by co-immunoprecipitation based Western blot analysis relative to control; type: functional
HT-29 [16] = test: Downregulation of RIPK3 protein level in human HT-29 cells incubated for 9 hrs by Western blot analysis; type: functional, cell-based; conditions: dose 0.75-6 µM
HT-29 [17] = test: Downregulation of MLKL protein level in human HT-29 cells incubated for 9 hrs by Western blot analysis; type: functional, cell-based; conditions: dose 0.75-6 µM
HT-29 [18] = test: Downregulation of RIPK1 protein level in human HT-29 cells at 6 uM preincubated with Z-VAD-FMK for 2 hrs followed by compound addition and measured after 9 hrs by Western blot analysis; type: functional, cell-based
HT-29 [19] = test: Downregulation of MLKL protein level in human HT-29 cells at 6 uM preincubated with NH4Cl for 2 hrs followed by compound addition and measured after 9 hrs by Western blot analysis; type: functional, cell-based
HeLa [20] = test: Upregulation of HSP70 expression in RIPK3-deficient human HeLa cells at 1.5 uM incubated for 9 hrs by Western blot analysis; type: functional, cell-based
HeLa [21] = test: Inhibition of RIPK1 protein expression in RIPK3-deficient human HeLa cells at 6 uM preincubated with MG132 for 2 hrs followed by compound addition and measured after 9 hrs by Western blot analysis; type: functional, cell-based
HeLa [22] = test: Inhibition of RIPK1 protein expression in RIPK3-deficient human HeLa cells at 6 uM preincubated with NH4Cl for 2 hrs followed by compound addition and measured after 9 hrs by Western blot analysis; type: functional, cell-based
HT-29 [23] = test: Downregulation of RIPK1 protein level in human HT-29 cell supernatant at 6 uM measured after 9 hrs by Western blot analysis; type: functional, cell-based

Cn1ccc(-c2ccc(NC(=O)[C@]34CCC(C)(C)C[C@H]3[C@H]3C(=O)C=C5[C@@]6(C)C=C(C#N)C(=O)C(C)(C)[C@@H]6CC[C@@]5(C)[C@]3(C)CC4)cc2)n1
1080 ng·h/mL: AUC(0-t) at 24 h [7]
9 h: Survival (HT-29 [2])
100%: inhibition at 10 µM [15]
Non-toxic: Activity [8] | Activity [9] | Activity [10] | Activity [11] | Activity [12]
1040 ng/mL: Cmax [6]
active: Activity (RAW264.7) Dose-dependent-effect | Activity (Mus musculus [3]) | Activity (Mus musculus [4]) | Activity (Mus musculus [5]) | inhibition [13] Dose-dependent-effect | inhibition [14] | Activity (HT-29 [16]) Dose-dependent-effect | Activity (HT-29 [17]) Dose-dependent-effect | Activity (HT-29 [18]) | Activity (HT-29 [19]) | Activity (HeLa [20]) | inhibition (HeLa [21]) | inhibition (HeLa [22]) | Activity (HT-29 [23])
inactive: Activity (HT-29 [1])
4.12 µM: EC50 (L929)

From ChEMBL document CHEMBL6177981, “Bardoxolone Derivatives as Novel Pseudo-Natural Necroptosis Inhibitors by Destabilizing HSP90 Client Proteins” (J Med Chem, 2025)
